Measurements reported in patent US20100190832A1, “Mechanism-based inhibitors of transthyretin amyloidosis: studies with biphenyl ethers and structural templates” (NATIONAL INSTITUTE OF IMMUNOLOGY., priority 2008, published 2010).
Read-outs that look alike come from different tables or passages of the source.

Experiments:
WT-TTR = biological target: T1, WT-TTR (Homo sapiens, UniProt P02766); assay: Stagnant acid-mediated TTR aggregation (fibril formation) assay, turbidity at 340 nm; type: biochemical; conditions: for remaining activity at 100 µM / remaining activity at 50 µM / remaining activity at 7.2 µM / remaining activity at 21.6 µM: 72 h; for remaining activity at 100 µM / inhibition at 100 µM: pH 4.4, compound 100 μM; for remaining activity at 100 µM / inhibition at 100 µM / remaining activity at 7.2 µM / remaining activity at 21.6 µM: pH 4.4, 37° C.; for remaining activity at 100 µM: read-out: % FF; for inhibition at 100 µM: read-out: % Inhibition; for remaining activity at 50 µM: read-out: % FF at 50 μM; for remaining activity at 7.2 µM / remaining activity at 21.6 µM: pH 4.4, TTR 7.2 μM, no inhibitor = 100%; for remaining activity at 7.2 µM: inhibitor 7.2 μM (1:1), read-out: % FF 1:1; for remaining activity at 21.6 µM: inhibitor 21.6 μM (1:3), read-out: % FF 1:3
T1 construct: made in house
Description: Stagnant Acid-Mediated TTR Aggregation Assay.
After 1 h, the samples were diluted with 0.5 ml of 200 mM sodium acetate buffer containing 100 mM KCl and 1 mM EDTA. Samples after mild vortexing were incubated at 37° C. for the desired amount of time without stirring to evaluate the efficacy of the inhibitors. The extent of aggregation was probed by turbidity measurements at 340 nm using Tecan GENios microplate reader. […] The extent of TTR fibril formation in the absence of inhibitor was defined to be 100%. […] All experiments were done in triplicate. […] The IC50 was determined by plotting mean of % inhibition vs log and fitted to sigmoid equation:
(§1) The experiments were conducted at 25° C. After 1 h, the samples were diluted with 0.5 mL of 200 mM sodium acetate buffer pH 4.4 containing 100 mM KCl and 1 mM EDTA, vortexed, and incubated at 37° C. for 72 h. […] The stoichiometry of the binding of the inhibitors was determined by HPLC as described by Green et al., N. S. Palaninathan, S, L, Sacchettini, J. e. […] Dissociation constant of binding of these compounds to TTR was determined by fluorescence titration, and data were fitted into the Adair equation for two bind mg.

TTR [1] = biological target: T2, TTR (Homo sapiens, UniProt P02766); assay: Time course (kinetics) of fibril formation, turbidity at 340 nm for 3 h; type: biochemical; conditions: TTR 7.2 μM, inhibitor 21.6 μM, 37° C., pH 4.4, 3 h
T2 construct: made in house
Description: Time Course of Fibril Formation. The kinetics of inhibition was studied by incubating […] TTR with […] of different inhibitors in 100 µl of 5 mM phosphate buffer pH 7.2 for 30 min in a 96 microwell plate. […] of 0.2 M sodium acetate buffer pH 4.4 containing 1 mM EDTA and 100 mM KCl was added. The difference in turbidity was assessed by measuring the change in absorbance at 340 nm on Tecan GEnios microplate reader using Magellan software. For kinetics, parameters were set for 30 cycles at 37° C. at the interval of 5 min each and 2 min orbital shaking (low speed) between cycles and 10 sec shaking (normal speed) before measurement. All experiments were performed in triplicates. Change in absorbance at 340 nm was plotted against time in the presence and absence of inhibitors initial rate of fibril formation was calculated from the slope by linear fitting of the data.
All experiments were performed three times in triplicates. Change in absorbance (mean of three different experiments) at 340 nm was plotted against time in the presence and absence of inhibitors. Initial rate of fibril form action was calculated from the value of the slope by linear fitting of the change in absorbance at 340 nm as a function of time.

TTR fibers = biological target: T3, TTR fibers (Homo sapiens, UniProt P02766); assay: Fibril disruption assay; type: biochemical; conditions: three doses (7.2 μM each), 15 days, Th-T fluorescence
T3 construct: made in house
Description: Fibril Disruption Assay. […] The disruption was followed for 7 days by turbidity measurements at 340 nm and Th-T fluorescence. A second dose of the inhibitor (7.2 μM) was added after 24 h of incubation, and samples were incubated and monitored further for 5-6 days. After 15-20 days of incubation, samples were examined by transmission electron microscopy (TEM). All experiments were done thrice in triplicates each time.

TTR [2] = biological target: T2, TTR; assay: Dissociation constant by fluorescence titration (Adair equation, two sites); type: binding; conditions: pH 4.4; read-out: Dissociation Constant Kd1
Description: as §1
Small aliquots of 1 mM ligands solutions were successively added to the […] in 100 mM sodium acetate buffer pH 4.4 at […] under constant stirring. After each addition sample was left for 2 min. […] Readings were corrected for buffer blank, dilution and inner filter effect. The inner filter effect was corrected by using the following equation,
From the titration data the dissociation constant was determined by fitting data in following Adair equation for two binding sites-

[3] = biphenyl ether 50 μM, WT-TTR 7.2 μM

Row | Structure (SMILES) | remaining activity at 100 µM (WT-TTR; WT-TTR 7.2 μM) [%] | inhibition at 100 µM (WT-TTR; WT-TTR 7.2 μM) [%] | further results
1 | CSC1=NSC2=NC(=O)/C(=C\c3ccc[nH]3)C(=N)N12 [Compound C146-0661] | 202 | 0 | 
2 | FC(F)(F)c1cccc(NC(=S)N(CCCN2CCCCC2)Cc2cccs2)c1 [Compound C087-1176] | 86.7 | 13.3 | 
3 | COc1cc(C(=O)O)ccc1Oc1ccc(Cl)cc1Cl [Compound 6] |  |  | remaining activity at 50 µM (WT-TTR; [3]): 0%; remaining activity at 7.2 µM (WT-TTR): 10%; remaining activity at 21.6 µM (WT-TTR): 0%; inhibition at 21.6 µM (TTR [1]): > 80%; disruption of preformed TTR fibers (TTR fibers): more effective
4 | O=C(O)C1CSC(c2ccc([N+](=O)[O-])cc2)N1 (stereo not drawn) [Compound K085-0004] | 119 | 0 | 
5 | O=C(Nc1nnc[nH]1)c1c(Cl)ccc(Cl)c1Cl [Compound 12] |  |  | IC50 (WT-TTR; 50% reduction in fibril formation, TTR 7.2 μM, pH 4.4, read-out: IC50 ± SE): 1060 ± 10 nM; remaining activity at 7.2 µM (WT-TTR): 11%; remaining activity at 21.6 µM (WT-TTR): 3.6%; IC50 (WT-TTR; TTR amyloid formation, 37° C., read-out: IC50): 470 to 3500 nM; inhibition of TTR fibrillization (WT-TTR; inhibitor 21.6 μM, TTR 7.2 μM): completely; Kd (TTR [2]): 120 ± 32.1 nM; inhibition at 21.6 µM (TTR [1]): > 80%; disruption of preformed TTR fibers (TTR fibers): more effective
6 | O=C(Nc1nnc[nH]1)c1c(Cl)ccc(Cl)c1Cl [Compound 3232-0353] | 11.5 | 88.5 | 
7 | Cc1nc2ccc(Cl)cc2c(O)c1CN1CCCC1 [Compound 4358-1240] | 81.8 | 18.2 | 
8 | CSC1=NSC2=NC(=O)/C(=C\c3ccc(O)cc3)C(=N)N12 [Compound C146-0184] | 72.7 | 27.3 | 
9 | Cc1ccsc1/C=c1\sc2nc(-c3cccs3)nn2c1=O [Compound 5629-0544] | 77.8 | 22.3 | 
10 | COc1cc(C=O)ccc1Oc1ccc([N+](=O)[O-])cc1[N+](=O)[O-] [Compound 16] |  |  | remaining activity at 50 µM (WT-TTR; [3]): 66%
11 | COc1cc(C(=O)O)ccc1Oc1ccc([N+](=O)[O-])cc1[N+](=O)[O-] [Compound 21] |  |  | remaining activity at 50 µM (WT-TTR): 48%; IC50 (WT-TTR; Table 3, WT-TTR 7.2 μM, read-out: IC50): 20000 nM

Further lines, with some results ahead:

Row | remaining activity at 100 µM (WT-TTR; WT-TTR 7.2 μM) [%] | inhibition at 100 µM (WT-TTR; WT-TTR 7.2 μM) [%] | Structure (SMILES) | further results
12 |  | 0 | O=C(c1cnc(Nc2ccc(F)cc2)c2ccccc12)n1ccnc1 [Compound C066-1627] | 
13 | 34.7 | 65.3 | COc1cccc(C(=O)NC(c2ccccc2)c2cc(Cl)c3cccnc3c2O)c1 (stereo not drawn) [Compound K839-0116] | 
14 | 286 | 0 | O=C1NC(=S)S/C1=C\c1ccc(-c2cc(Cl)ccc2Cl)o1 [Compound 3062-0073] | 
15 | 113 | 0 | Cc1ccc2nc(-c3ccc(Cl)s3)c(Nc3ccc(Cl)cc3)n2c1 [Compound C239-0730] | 
16 | 162 | 0 | Cc1ccn2c(Nc3ccc(F)cc3)c(-c3ccccn3)nc2c1 [Compound C273-0218] | 
